Assay [1] concerns PACA-2. Kind of assay: MTT cell survival rate, PACA-2. Format: cell-based. The settings on record: Homo sapiens, PACA-2, 24 hours, read-out: IC50 (concentration of 50% inhibition). As to the method: (§1) MTT (3-[4,5-dimethylthiahiazo-2-yl]-2,4-dipheny-tetrazolium bromide) was used to determine if the cell survival rate of different pancreatic cancer cell lines will be influenced when being treated with (Z)-butylidenephthalide. Human pancreatic cancer cell lines (3×10^3 cells/well), PANC-1 and PACA-2, were cultured in a 96-well micro-culture plate over night. Different concentrations of (Z)-butylidenephthalide (0 μg/ml, 10 μg/ml, 25 μg/ml, 50 μg/ml, 75 μg/ml, or 100 μg/ml) or (E)-butylidenephthalide (0 μg/ml, 50 μg/ml, 100 μg/ml, 200 μg/ml, 400 μg/ml, or 800 μg/ml), or 50 μM gemcitabine (a traditional medicine for treating pancreatic cancer, as a control group) were added into each well of the 96-well micro-culture plate along the inner wall, and cultured for 24 hours. The medium was removed, and then a medium containing 500 μg/ml MTT (200 μl) was added and cultured for 4 hours. The medium was removed, and then 200 μl of DMSO was added into the plate. The absorbance of the sample in each well was measured by a spectrophotometer at 570 nm wavelength. The data was calculated to determine the survival rate and IC50 (concentration of 50% inhibition) of each pancreatic cancer cell line treated with (Z)-butylidenephthalide and (E)-butylidenephthalide. The results are shown in FIG. 1A ((E)-butylidenephthalide) and FIG. 1B ((Z)-butylidenephthalide).

The test system of assay [2] is PANC-1. Description: MTT cell survival rate, PANC-1. Format: cell-based. The settings on record: Homo sapiens, PANC-1, 24 hours, read-out: IC50 (concentration of 50% inhibition). As to the method:
as §1

The subject of assay [3] is PACA-2. Kind of assay: Micro RNA interference test, cellular survival rate of PACA-2. The class given is cell-based, human. The settings on record: PACA-2, 133 μM Z-BP. Here is the method:
Human pancreatic cancer cell lines, PACA-2, was cultured with p(CPP-SA)-Z-BP comprising 0 w % (as a control group), 17.5 w %, or 25 w % (Z)-butylidenephthalide, respectively, for 24 hours, and then the tumor cell morphology and cellular survival rate were observed.
In addition, the human pancreatic cancer cell line, PACA-2, was treated with 10 nM or 50 nM of Nurr1 micro RNA, and then treated with 133 μM Z-BP. Then, the cellular survival rate was observed using the same method as described in Example 4.

Assay [4] relates to gene expression levels of NOR-1, Nurr1, and Nur77 in PACA-2. Description: RT-PCR of apoptosis-related gene expression, PACA-2. Format: cell-based, Human. Here is the method: (§2) In this experiment, pancreatic cancer cell lines, PANC-1 and PACA-2, were treated with 100 μg/ml Z-BP for 0, 1, 3, 6, or 24 hours, and then, analyzed by reverse transcriptase-polymerase chain reaction (RT-PCR) (FIG. 6A) to analyze the effects of Z-BP on the gene expression levels of NOR-1, Nurr1, and Nur77 in the pancreatic cancer cell line. In addition, pancreatic cancer cell lines, PANC-1 and PACA-2, were treated with different concentrations of Z-BP for 3 hours, and then, analyzed by RT-PCR (FIG. 6B). The Glyceraldehyde 3-phosphate dehydrogenase (GAPDH) was used as the control group.

Assay [5] deals with gene expression levels of NOR-1, Nurr1, and Nur77 in PANC-1. Description: RT-PCR of apoptosis-related gene expression, PANC-1. The class given is cell-based, Human. Here is the method: as §2
For assay [6], the system named is Nur77 gene pathway-related and apoptosis-related proteins in PACA-2. Description: Western blotting of Nur77 pathway-related and apoptosis-related proteins in PACA-2. Format: cell-based, Human. As to the method: Human pancreatic cancer cell line, PACA-2, […], and then the expression levels of the Nur77 gene involved pathway-related proteins were analyzed by Western blotting, including Pan-PKC, AKT, ERK, and JNK (FIG. 8A). In addition, the expression levels of apoptosis-related proteins were also analyzed, including poly(ADP-ribose) polymerase (PARP), cleaved poly(ADP-ribose) polymerase (cPARP), caspase-3 (FIG. 8B). β-actin was used as the control group.
On the technique in general: A western blot detects proteins with antibodies after separation by electrophoresis.

For assay [7], the system named is Nurr1 RNA in PACA-2. Kind of assay: Micro RNA interference test, RT-PCR of Nurr1 RNA in PACA-2. The settings on record: PACA-2, 133 μM Z-BP. The class given is cell-based, human. As to the method: The RNA expression of Nurr1 in the human pancreatic cancer cell line, PACA-2, was inhibited by Micro RNA interference technology. The cells were treated with 133 μM Z-BP. Then, the cells were analyzed by RT-PCR to detect the changes in the expression of Nurr1 RNA in the cells. As the results shown in FIG. 7A, when PACA-2 cells were treated with 50 nM Nurr1 micro RNA, about 50% of the Nurr1 induced by Z-BP was inhibited.

Where [8] appears, read: PACA-2, 100 μg/ml Z-BP, 1 to 3 hours.
Where [9] appears, read: PANC-1, 100 μg/ml Z-BP, 1 to 3 hours.
The mark [10] stands for this setting: PACA-2, Z-BP for 24 hours or 48 hours.

The record followed here is patent publication US9872912B2, “Method for treating pancreatic cancer” (CHINA MEDICAL UNIVERSITY, priority 2014, dated 2018).

“And” between values parts separate entries of the source, which are not always exact repeats. Equal values may be shown once.

Consider `CCC/C=C1/OC(=O)c2ccccc21` [(E)-butylidenephthalide, reference compound], for which the IC50 in assay [1] is ~162 µg/mL and ~864 µM; in assay [2], ~257 µg/mL and ~1.37 mM.
As to `CCC/C=C1\OC(=O)c2ccccc21` [(Z)-butylidenephthalide], the “cellular survival rate of PACA-2 cells” value in assay [3] is “reduce the cellular survival rate”. In addition, in assay [4] (setting [8]), the “mRNA expression level of NOR-1” value is on record as “increased” and the “mRNA expression level of Nurr1” value is reported as “increased”. Besides, in assay [4] (PACA-2, different concentrations of Z-BP, 3 hours), the “mRNA expression level of Nurr1” value is “increased”. In assay [5] (setting [9]), the “mRNA expression level of NOR-1” value was “increased” and the “mRNA expression level of Nurr1” value was “increased”. Moreover, the “mRNA expression level of Nurr1” value in assay [5] (PANC-1, different concentrations of Z-BP, 3 hours) is “increased”. Further, in assay [6] (PACA-2, Z-BP for 180 minutes), the “expression level of phospho-AKT (Pi-AKT)” value is reported as “increased” and the “expression level of phospho-JNK (Pi-SAPK/JNK)” value was “increased”. In assay [6] (setting [10]), the “expression level of PARP” value is listed as “increased”, the “expression level of cPARP” value was “increased” and the “expression level of caspase-3” value is reported as “increased”. Further, the IC50 in assay [1] is ~25 µg/mL and ~133 µM. In addition, the IC50 in assay [2] is ~45 µg/mL and ~234 µM. The “expression of Nurr1” value in assay [7] is “increase the expression of Nurr1”.
